Assay results taken from ChEMBL document CHEMBL1123787, “Radioiodinated p-iodoclonidine: a high-affinity probe for the alpha 2-adrenergic receptor” (J Med Chem, 1987).

Molecular target: T1, Adrenergic receptor alpha-2 (Homo sapiens, UniProt P08913+P18825+P18089)
T1 sequence (P08913 whole entry): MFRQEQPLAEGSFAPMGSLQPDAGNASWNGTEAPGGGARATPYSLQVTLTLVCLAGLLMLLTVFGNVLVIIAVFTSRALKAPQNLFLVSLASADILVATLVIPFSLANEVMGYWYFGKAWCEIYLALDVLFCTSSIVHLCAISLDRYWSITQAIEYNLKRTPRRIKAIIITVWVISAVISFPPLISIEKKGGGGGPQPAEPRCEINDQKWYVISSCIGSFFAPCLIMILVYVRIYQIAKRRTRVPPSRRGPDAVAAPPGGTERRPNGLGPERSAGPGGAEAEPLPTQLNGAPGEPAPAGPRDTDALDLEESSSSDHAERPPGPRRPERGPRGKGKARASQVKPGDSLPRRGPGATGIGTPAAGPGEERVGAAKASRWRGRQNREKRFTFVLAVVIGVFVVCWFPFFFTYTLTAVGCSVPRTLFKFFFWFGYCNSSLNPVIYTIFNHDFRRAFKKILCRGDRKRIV
T1 sequence (P18825 whole entry): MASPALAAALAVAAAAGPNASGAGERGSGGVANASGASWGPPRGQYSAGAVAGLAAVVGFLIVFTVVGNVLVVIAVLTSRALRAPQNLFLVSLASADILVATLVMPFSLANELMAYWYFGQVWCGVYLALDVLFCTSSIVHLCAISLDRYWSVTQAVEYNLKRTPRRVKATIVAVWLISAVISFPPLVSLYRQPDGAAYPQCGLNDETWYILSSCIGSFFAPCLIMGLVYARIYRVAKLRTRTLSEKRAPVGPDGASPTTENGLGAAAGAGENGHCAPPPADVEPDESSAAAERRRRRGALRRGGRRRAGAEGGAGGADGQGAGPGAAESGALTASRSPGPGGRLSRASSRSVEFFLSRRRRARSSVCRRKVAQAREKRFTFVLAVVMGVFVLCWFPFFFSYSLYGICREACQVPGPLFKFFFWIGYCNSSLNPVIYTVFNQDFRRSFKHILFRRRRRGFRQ
T1 sequence (P18089 whole entry): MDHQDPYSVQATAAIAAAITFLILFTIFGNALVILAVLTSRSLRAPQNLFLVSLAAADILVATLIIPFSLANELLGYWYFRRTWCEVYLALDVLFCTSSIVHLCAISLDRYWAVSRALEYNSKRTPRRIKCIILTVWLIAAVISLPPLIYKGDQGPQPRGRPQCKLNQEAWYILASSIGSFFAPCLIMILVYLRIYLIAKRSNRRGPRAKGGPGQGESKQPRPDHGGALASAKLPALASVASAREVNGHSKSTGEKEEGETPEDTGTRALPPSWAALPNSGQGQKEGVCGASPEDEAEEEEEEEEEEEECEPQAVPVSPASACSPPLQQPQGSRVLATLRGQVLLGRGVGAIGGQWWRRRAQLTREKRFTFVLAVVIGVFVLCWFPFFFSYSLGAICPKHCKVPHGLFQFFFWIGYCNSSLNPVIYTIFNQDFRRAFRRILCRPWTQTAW

Row | Structure (SMILES) | IC50
1 | Clc1cc(N=NN2CCCC2)cc(Cl)c1NC1=NCCN1 | 2 µM
2 | O=[N+]([O-])c1cc(Cl)c(N=C2NCCN2)c(Cl)c1 | 10 µM
